Results taken from patent US20040191843A1, “Cell-killing molecules and methods of use thereof” (Palo Alto Institute of Molecular Medicine, priority 2003, published 2004).
“Also recorded” adds a separate entry of the source. Like-named read-outs stand apart in the source and are kept apart here.

What was measured:
U937 cells [1] = assay: DNA fragmentation in whole cells (release of 3H-labeled DNA fragments, 4 h); type: cell-based, human; conditions: for IC50: Homo sapiens, U-937, 4 h
Procedure: (§1) DNA fragmentation in whole cells or normal nuclei isolated from U937 or MCF-7 cells was assayed by release of (3H)thymidine-labeled DNA fragments as described in detail previously (Wright et al. (1994) J. Exp. Med. 180, 2113-2123). DNA fragmentation induced by rADF treatment of isolated nuclei for four h was analyzed by agarose electrophoresis as described in detail previously (Wright et al. (1994) supra). In four h assays using isolated nuclei, the buffer was supplemented with an ATP regenerating system (2 mM ATP, 10 mM phosphocreatine, and 50 μg/ml creatine kinase).

U9-TR = assay: as above; type: cell-based, human; conditions: Homo sapiens; U9-TR; 4 hr; read-out: IC50 Value (minimal concentration to cause 50% DNA fragmentation)
Procedure: as §1
(§2) Another mechanism whereby cancer cells may resist apoptosis is through overexpression of heat shock (HS) proteins which have been found at high levels in most tumor cell biopsies (Jaattela, et al., 1999, Exp Cell Res 248:30-43). […] We have studied the mechanisms of apoptosis resistance using several variants derived from the U937 cell line. Variants generated by prolonged growth in the presence of TNF (U9-TR) or by nutritional depletion of intracellular NAD content (U9-NAD-) have been described in the literature previously (Wright, et al., 1992, Cancer Immunol Immunother 34:399-406; Wright, et al., 1996b, J. Exp. Med. 183: 463-477). Both of these variants were resistant to apoptosis induced by diverse agents, such as chemotherapeutic drugs, UV light, and TNF.

U9-NAD - = assay: as above; type: cell-based; conditions: Homo sapiens, read-out: IC50 Value (minimal concentration to cause 50% DNA fragmentation)
Procedure: as §1, §2

HL-60 neo = assay: as above; type: cell-based; conditions: Homo sapiens
HL-60 Bcl-2 = assay: as above; type: cell-based; conditions: Homo sapiens
U937 cells [2] = assay: Viability by trypan blue exclusion after 4 h treatment; type: cell-based, human; conditions: for IC50: Homo sapiens, U-937, trypan blue, 4 h
MES-SA (parental) = assay: 48 h MTT dye reduction assay; type: cell-based; conditions: Homo sapiens
From the text: (§3) One of the most frequently reported alterations associated with multidrug resistance is increased expression of the 170 kDa membrane protein called P-glycoprotein encoded by the MDR1 gene. It functions as an energy-dependent drug efflux pump that reduces intracellular drug accumulation, thereby causing resistance to many structurally unrelated drugs (Roninson, et al., 1986, Proc Natl Acad Sci 83:4538-4542). To determine if MDR1 overexpressing cells were sensitive to rADF, the inventors tested the parental drug-sensitive uterine sarcoma, MES-SA, compared to a variant selected by culturing in doxorubicin, MES-SA/Dx5, described previously (Chen et al., 1997).

MES-SA/Dx5 (MDR1 high) = assay: cells; conditions: 48 h, read-out: IC50 Values
From the text: as §3

Hep3B = assay: 48 h MTT dye reduction assay; type: cell-based; conditions: Homo sapiens
From the text: (§4) The cytotoxic activity of rADF-Ant was compared to several chemotherapeutic drugs on a panel of three HCC cell lines.
(§5) Without limiting the invention to any particular mechanism, another possible mechanism of resistance is expression of the multidrug resistance associated protein (MRP). This protein is thought to exert a function similar to the p-glycoprotein, and is expressed at high levels in the HepG2 and SK Hep-1 cell lines (Takeuchi, et al., 1999, J Gastroenterol 34:351-358). Increased expression of thioredoxin, which functions as a cellular defense mechanism against oxidative stress, may also protect HCC's from some chemotherapeutic agents (Kawahara, et al., 1996, Cancer Res 56:5330-5333). Expression of different xenobiotic enzymes (e.g. cytochrome P-450 and glutathione S-transferase) may also contribute to the intrinsic drug resistance of HCC (Murray, et al., 1993, Cancer 71:36-43). Additional studies explored whether the high intrinsic levels of drug resistance in the HCC lines can be even further augmented by adherence to ECM protein. Overexpression of b1 integrin and its role in the progression of HCC has been reported (Patriarca, et al., 1993, J Pathol 171:5-11). Overexpression of b1-integrin in several HCC lines (including HepG2) protected them from chemotherapeutic drug-induced apoptosis via a MAP kinase-dependent pathway (Zhang, et al., 2002, Cancer 95:896-906). Knockout of a6b1-integrin expression reversed the transformed phenotype of HepG2 cells (Carloni et al., 1998, Gastroenterology. 115:433-442). […] These properties of HCCs may contribute to the marked changes in amount and distribution of ECM components found in the stroma of HCC as compared to normal liver (Jaskiewicz, et al., 1993, Anticancer Res 13:2229-2238). Thus, the combination of increased expression of integrins in HCCs as well as abnormalities in the surrounding ECM may create an environment that both promotes tumor growth and inhibits apoptosis. Therefore, the inventors tested HepG2 and Hep3B for drug sensitivity when assayed on plates coated with BSA as a control, or on FN as described above for U937 cells.

HepG2 = assay: 48 h MTT dye reduction assay; type: cell-based; conditions: Homo sapiens
From the text: as §4, §5

SK Hep-1 = assay: 48 h MTT dye reduction assay; type: cell-based; conditions: Homo sapiens, SK-HEP1, read-out: IC50 Values ± SEM (n)
From the text: as §4

isolated U937 nuclei = assay: DNA fragmentation in isolated nuclei (release of 3H-labeled DNA fragments; agarose gel); type: biochemical, human
Procedure: as §1
ADF was purified from 2.9 mg of pig heart mitochondrial MDH obtained from Worthington Enzymes, New Jersey. Protein was fractionated by gel filtration on a Tosohaas G2000SWXL 7.8 mm×300 mm HPLC column, and each fraction tested for DNA fragmentation in isolated U937 nuclei (ADF activity) and for MDH enzyme activity. Active fractions were pooled and applied to a reverse phase C4 Brownlee 2.1 mm×220 mm column equilibrated in H2O+0.0075% trifluoroacetic acid pH 6.5, and eluted with a linear gradient to 40% acetonitrile.
In preliminary studies, the inventors observed that supernatants of normal mitochondria derived from cultured cells or freshly isolated liver cells incubated in vitro contained activity that induced internucleosomal DNA cleavage in isolated U937 nuclei. […] To ascertain that the DNA fragmenting activity of MDH was not due to a contaminating nuclease, the inventors purified the commercial enzyme to determine the source of the ADF activity.
Therefore, it is likely that ADF directly or indirectly activates endonucleases present in isolated nuclei.

isolated MCF-7 nuclei = assay: DNA fragmentation in isolated nuclei (release of 3H-labeled DNA fragments); type: biochemical, human; conditions: nuclei from MCF-7 cells (no caspase 3); four h assay
naked DNA = assay: DNase assay on naked DNA substrate (rADF alone or extracts of rADF-treated U937 nuclei); type: biochemical, human
ICAD/DFF45 = assay: Western blot for ICAD cleavage in rADF-treated nuclei; type: biochemical, human; conditions: U937 nuclei treated with rADF
[3] = Hep3B (BSA) plate coating, read-out: IC50 Values
[4] = Hep3B (FN) plate coating, read-out: IC50 Values
[5] = read-out: IC50 Values ± SEM (n)
[6] = HepG2, 48 h, HepG2 (BSA) plate coating, read-out: IC50 Values
[7] = HepG2, 48 h, HepG2 (FN) plate coating, read-out: IC50 Values
[8] = HepG2, 48 h, HepG2, read-out: IC50 Values ± SEM (n)

Molecule: COc1cc([C@@H]2c3cc4c(cc3[C@@H](O[C@@H]3O[C@@H]5CO[C@@H](C)O[C@H]5[C@H](O)[C@H]3O)[C@H]3COC(=O)[C@H]23)OCO4)cc(OC)c1O [Etoposide, etoposide]
- IC50 (U937 cells [1]; U937, 4 hr, read-out: IC50 Value (minimal concentration to cause 50% DNA fragmentation)): 12 µM
- IC50 (U937 cells [1]; U937 on BSA, 4 h DNA fragmentation, read-out: IC50 Values): 4 µM
- IC50 (U937 cells [1]; U937 on FN, 4 h DNA fragmentation, read-out: IC50 Values): 15 µM
- fold higher concentration to induce 50% DNA fragmentation (U937 cells [1]; cells adhering to FN vs plated on BSA): about 5 fold
- IC50 (U9-TR): > 500 µM
- IC50 (U9-NAD -): > 500 µM
- IC50 (HL-60 neo): 26 µM
- IC50 (HL-60 Bcl-2): 380 µM
- IC50 (U937 cells [2]; U937 + PMA (10 nM, 3 days)): 510 µM
- IC50 (U937 cells [2]; U937): 4 µM
- factor of resistance of PMA-treated cells (U937 cells [2]; PMA-treated vs normal U937): 127 fold
- IC50 (MES-SA (parental)): 59 µM
- IC50 (MES-SA/Dx5 (MDR1 high)): > 500 µM
- IC50 (Hep3B; [3]): 210 µM
- IC50 (Hep3B; [4]): 840 µM
- IC50 (Hep3B; [5]): 95 µM
- IC50 (HepG2; HepG2 (BSA) plate coating, read-out: IC50 Values): 35 µM
- IC50 (HepG2; HepG2, read-out: IC50 Values ± SEM (n)): 231 µM
- IC50 (SK Hep-1): 58 µM

Molecule: O=c1[nH]cc(F)c(=O)[nH]1 [5-FU, 5-fluorouracil]
- IC50 (Hep3B; [3]): 490 µM
- IC50 (Hep3B; [4]): > 2 µM
- IC50 (Hep3B; [5]): 410 µM
- IC50 (HepG2; [6]): 515 µM
- IC50 (HepG2; [7]): > 2 µM
- IC50 (HepG2; [8]): 620 µM
- IC50 (SK Hep-1): 203 µM

Molecule: COc1cccc2c1C(=O)c1c(O)c3c(c(O)c1C2=O)C[C@@](O)(C(=O)CO)C[C@@H]3O[C@H]1C[C@H](N)[C@H](O)[C@H](C)O1 [Dox, doxorubicin]
- IC50 (Hep3B; [3]): 86 µM
- IC50 (Hep3B; [4]): > 400 µM
- IC50 (Hep3B; [5]): 80 µM
- IC50 (HepG2; [6]): 104 µM
- IC50 (HepG2; [7]): > 400 µM
- IC50 (HepG2; [8]): 122 µM
- IC50 (SK Hep-1): 73 µM

B1: rADF: recombinant human activator of DNA fragmentation, 9 kDa C-terminal fragment of mitochondrial MDH, SEQ ID NO:7 (protein, listed as Homo sapiens)
chain: KAKAGAGSATLSMAYAGARFVFSLVDAMNGKEGVVECSFVKSQETECTYFSTPLLLGKKGIEKNLGIGKVSSFEEKMISDAIPELKASIKKGEDFVKTLK
- internucleosomal DNA fragmentation (isolated U937 nuclei; agarose gel, 4 h): induced internucleosomal DNA fragmentation
- activation of nuclear DNA fragmentation (isolated U937 nuclei; nuclei from U937 cells, four h assay): dose-dependent activation
- activation of nuclear DNA fragmentation (isolated MCF-7 nuclei): dose-dependent activation
- DNase activity on naked DNA of extracts from treated nuclei (naked DNA; U937 nuclei incubated with rADF 20 h): digested naked DNA
- digestion of naked DNA by rADF itself (naked DNA; rADF without nuclei): did not digest naked DNA; also recorded: little or no activity
- ICAD/DFF45 cleavage (ICAD/DFF45): not cleaved
- DNA fragmentation activity at the same concentrations (U937 cells [1]; 2.25-9 nM, 4 h assay): little activity

B2: MDH derived from porcine heart mitochondria: commercial preparation of mitochondrial malate dehydrogenase (Worthington Enzymes) (protein, UniProt P00346 25-338, looked up)
Malate dehydrogenase, …: AKVAVLGASGGIGQPLSLLLKNSPLVSRLTLYDIAHTPGVAADLSHIETRATVKGYLGPEQLPDCLKGCDVVVIPAGVPRKPGMTRDDLFNTNATIVATLTAACAQHCPDAMICIISNPVNSTIPITAEVFKKHGVYNPNKIFGVTTLDIVRANAFVAELKGLDPARVSVPVIGGHAGKTIIPLISQCTPKVDFPQDQLSTLTGRIQEAGTEVVKAKAGAGSATLSMAYAGARFVFSLVDAMNGKEGVVECSFVKSQETDCPYFSTPLLLGKKGIEKNLGIGKISPFEEKMIAEAIPELKASIKKGEEFVKNMK
- concentrations dose-dependently inducing nuclear DNA fragmentation (isolated U937 nuclei; isolated nuclei): 2 to 10 µg/mL
